We go through one compound from PubChem BioAssay AID504746 (National Center for Advancing Translational Sciences (NCATS), 2011).

This data set deals with mouse liver microsomes + NADPH, LC-MS/MS % remaining. As to the kind of experiment: Inhibitors of N370S glucocerebrosidase as a Potential Chaperone Treatment of Gaucher Disease: Metabolic Stability Profile with NADPH. The conditions noted are these: at 5 µM; higher = more stable (active). The text has this: Glucocerebrosidase (GC) catalyzes the hydrolysis of beta-glucocerebroside to glucose and ceramide in lysosomes. Mutations in the glucocerebrosidase gene result in Gaucher disease, an autosomal recessive lysosomal storage disorder. Many of the mutations encountered in patients with Gaucher disease are missense alterations that may cause misfolding, decreased stability and/or mistrafficking of this lysosomal protein. […] These inhibitors include iminosugar analogs and three non-iminosugar inhibitors identified from a previous HTS of 62,000 compounds with the wild type recombinant enzyme. After further testing a probe has been identified and was characterized though AMDE tests. Mouse liver microsomes are created through broken up endoplasmic reticulum from mouse liver. These liver microsomes contain many drug metabolizing enzymes, such as Cytochome P-450s and flavin-containing monooxygenases. […] NIH Chemical Genomics Center [NCGC] NIH Molecular Libraries Probe Production Centers Network [MLPCN] MLPCN Grant: MH086442-01 Assay Submitter (PI): Wei Zheng
5uM of compound is incubated with mouse liver microsome in the presence of NADPH; the reference compounds are verapamil and warfarin. Compounds are incubated and samples are analyzed with LC-MS/MS.

On to `S=C(NCCCc1cnc[nH]1)NCCCN(Cc1ccc(Cl)c(Cl)c1)c1ccc(Br)cn1`, for which the percent remaining is 58%.
